In US9360486B2, “Allergen fragments” (Biomay AG, priority 2007, dated 2016):

Tested on: Amb a 1-specific T cell lines (TCL)
Test: T cell epitope mapping of Amb a 1.3: proliferation (3H-thymidine uptake) of TCL stimulated with synthetic peptides
Type: cell-based, human
Details: for No. positive patients SI > 3 / No. positive patients SI > 5 / % (positive patients SI > 3) / % (positive patients SI > 5): TCL from 48 ragweed pollen-allergic patients, peptide 5 μg/ml; for No. positive patients SI > 3 / No. positive patients SI > 5: 3H-thymidine uptake after 48 hrs; for No. positive patients SI > 3 / % (positive patients SI > 3): stimulation index > 3; for No. positive patients SI > 5 / % (positive patients SI > 5): stimulation index > 5; for T cell activating region recognized by % of patients: classes of prevalence referring to SI>5, 48 TCL
Source text: The T cell response to Amb a 1 was characterized in detail using the established in vitro culture system (Jahn-Schmid et al., J. Immunol. 169: 6005-11, 2002; Jahn-Schmid et al., J. Allergy Clin. Immunol., 115: 399-404, 2005). In total, 85 clinically well-defined patients (75 from Vienna/10 from Milano) with typical case history, positive skin prick test and CAP/RAST tests for ragweed extract were included.
Peripheral blood mononuclear cells (PBMC) were isolated from heparinized blood of allergic patients by Ficoll density gradient centrifugation. To generate allergen-specific T cell lines (TCL) and T cell clones (TCC), 1.5×10^6 PBMC were stimulated with optimal doses of ragweed or mugwort extract (4 μg/ml) or rAmb a 1.3 (10 μg/ml) in 24-well flat-bottomed culture plates (Costar, USA). After 5 days human rIL-2 (10 U/ml, Boehringer, Mannheim, Germany) were added and cultures were continued for additional 7 days. Then, T cell blasts were isolated by density centrifugation. The majority of T cell blasts was further expanded with IL-2 and irradiated PBMC. A small number of T cell blasts were used to establish monoclonal T cell cultures by limiting dilution: 0.3 T cells/well were seeded into 96 well round bottom plates (Nunclone) in the presence of 2×10^5 irradiated (60 Gy) PBMC, 0.25% v/v PHA (Gibco, USA) and rIL-2 (4 U/well) in the medium mentioned above. After 14-21 days, growing microcultures were expanded at weekly intervals with irradiated PBMC and rIL-2. The specificity of TCC was assessed in proliferation assays using irradiated allogeneic or HLA-matched PBMC or irradiated EBV-transformed allogeneic B-cells and 5 μg/ml Amb a 1.3. After 48 hours, cellular uptake of tritiated (^3H)-thymidine was performed to measure proliferation in counts per minute (cpm). When the stimulation index (SI; ratio between cpm obtained in cultures containing TCC plus autologous APC plus antigen, and cpm obtained in cultures containing TCC and APC alone) was >10, responses were considered as positive. Allergen-specific TCC were expanded by alternating turns of stimulation with autologous irradiated APC and allergen or with allogeneic feeder cells and rIL-2.
Amb a 1-specific TCL and TCC were used to identify T cell epitopes of Amb a 1.3. T cell cultures were stimulated with a panel of 121 synthetic 12-mer peptides and one 13-mer representing the C-terminal peptide of Amb a 1.3 (Pepset, Biotrend, Germany). Peptides had been synthesized according to the Amb a 1.3 amino acid sequence and overlapped for 9 amino acid residues with the neighbouring peptides (Table 1). Peptides were used at a concentration of 5 μg/ml for stimulation and proliferation of T cell cultures was determined after 48 hrs by ^3H-thymidine-uptake. Because of the frequently observed high background caused by auto-reactivity in TCL, the mean of the cpm observed with the ten least stimulating peptides (none of the peptides was toxic) was used as negative control in calculations of SI. Throughout this manuscript, a peptide comprised one T cell epitope when the stimulation index was at least 3.0.
T cell epitope mapping of Amb a 1.3 was performed evaluating 48 TCL from different patients ([…]), which had been initiated with ragweed extract (containing the natural allergen) or rAmb a 1.3 (Table 2). TCL induced with either ragweed extract or rAmb a 1.3 from the same individual recognized similar T cell epitopes (Table 2; FIG. 7). […] Therefore, their data were combined for further analysis (Table 3). Typical for many inhalant allergens, multiple T cell activating regions were detected in Amb a 1.3. The number of peptides recognized by T cells from a single individual ranged from 2 to maximum 60 peptides with a mean of 17.8 peptides (median=16/for SI>3; resp. 0-36/11.9/12 for SI>5) (see Table 3). In total, 26 relevant (i.e. recognized by ≧10% of patients studied) T cell activating regions comprising 12-18 aa were identified. […]

With “GSSQIWIDHCSLSKS (Amb a 1 fragment) [Peptide 60-61]” the “reactivity with T cells isolated from allergic individuals” value (from here on “reactivity with T cells isolated”) was “reactivity with T cells”.
“AKGTYGGKWGDV (Amb a 1 fragment) [Peptide 18]” was tested, and the “No. positive patients SI > 3” value was 1, the “No. positive patients SI > 5” value was 0 and the “% (positive patients SI > 3)” value was 2.1%. The “% (positive patients SI > 5)” value was 0.0%.
In the case of “DTINVAGSSQIW (Amb a 1 fragment) [Peptide 58]”, the “No. positive patients SI > 3” value is reported as 3, the “No. positive patients SI > 5” value is reported as 1 and the “% (positive patients SI > 3)” value is reported as 6.3%. For the same sequence, the “% (positive patients SI > 5)” value was 2.1%.
“ILLGADDTHVQD (Amb a 1 fragment) [Peptide 74]” was tested, and the “No. positive patients SI > 3” value was 3, the “No. positive patients SI > 5” value was 1 and the “% (positive patients SI > 3)” value was 6.3%. The “% (positive patients SI > 5)” value was 2.1%.
“LCQGNRFLAPDD (Amb a 1 fragment) [Peptide 95]” was tested, and the “No. positive patients SI > 3” value was 0, the “No. positive patients SI > 5” value was 0 and the “% (positive patients SI > 3)” value was 0.0%. For the same sequence, the “% (positive patients SI > 5)” value was 0.0%.
“AIKLTSSAGVLS (Amb a 1 fragment) [Peptide 119]” was tested, and the “reactivity with T cells isolated” value was “reactivity with T cells”, the “No. positive patients SI > 3” value was 16 and the “No. positive patients SI > 5” value was 10. For the same sequence, the “% (positive patients SI > 3)” value was 33.3% and the “% (positive patients SI > 5)” value was 20.8%.
With “QACEAYNIIDKC (Amb a 1 fragment) [Peptide 7]” the “No. positive patients SI > 3” value was 1, the “No. positive patients SI > 5” value was 0 and the “% (positive patients SI > 3)” value was 2.1%. For the same sequence, the “% (positive patients SI > 5)” value was 0.0%.
With “GEAAIKLTSSAG (Amb a 1 fragment) [Peptide 118]” the “reactivity with T cells isolated” value was “reactivity with T cells”, the “No. positive patients SI > 3” value was 10 and the “No. positive patients SI > 5” value was 8. The “% (positive patients SI > 3)” value was 20.8% and the “% (positive patients SI > 5)” value was 16.7%.
With “GADDTHVQDKGM (Amb a 1 fragment) [Peptide 75]” the “No. positive patients SI > 3” value was 1, the “No. positive patients SI > 5” value was 1 and the “% (positive patients SI > 3)” value was 2.1%. The “% (positive patients SI > 5)” value was 2.1%.
In the case of “RMPRCRFGFFQV (Amb a 1 fragment) [Peptide 84]”, the “No. positive patients SI > 3” value is reported as 3, the “No. positive patients SI > 5” value is reported as 1 and the “% (positive patients SI > 3)” value is reported as 6.3%. For the same sequence, the “% (positive patients SI > 5)” value was 2.1%.
For “QNRPLWIIFKNDMVI (Amb a 1 fragment) [Peptide 30-31]”, the “reactivity with T cells isolated” value was “reactivity with T cells” and the “T cell activating region recognized by % of patients” value was “recognized by 20.8%”.
In the case of “SAGVLSCRPGAPC (Amb a 1 fragment) [Peptide 121]”, the “reactivity with T cells isolated” value is reported as “reactivity with T cells”, the “No. positive patients SI > 3” value is reported as 6 and the “No. positive patients SI > 5” value is reported as 2. For the same sequence, the “% (positive patients SI > 3)” value was 12.5% and the “% (positive patients SI > 5)” value was 4.2%.
In the case of “MIPAEPGEAAIK (Amb a 1 fragment) [Peptide 116]”, the “No. positive patients SI > 3” value is reported as 6, the “No. positive patients SI > 5” value is reported as 4 and the “% (positive patients SI > 3)” value is reported as 12.5%. For the same sequence, the “% (positive patients SI > 5)” value was 8.3%.
In the case of “WRSDKDLLENGA (Amb a 1 fragment) [Peptide 106]”, the “No. positive patients SI > 3” value is reported as 3, the “No. positive patients SI > 5” value is reported as 1 and the “% (positive patients SI > 3)” value is reported as 6.3%. The “% (positive patients SI > 5)” value was 2.1%.
“NGAIFVTSGSDPVLTPVQ (Amb a 1 fragment) [Peptide 109-111]” was tested, and the “reactivity with T cells isolated” value was “reactivity with T cells” and the “T cell activating region recognized by % of patients” value was “recognized by 22.9%”.
For “DGPPILRQASDG (Amb a 1 fragment) [Peptide 54]”, the “No. positive patients SI > 3” value was 4, the “No. positive patients SI > 5” value was 2 and the “% (positive patients SI > 3)” value was 8.3%. For the same sequence, the “% (positive patients SI > 5)” value was 4.2%.
With “LLENGAIFVTSG (Amb a 1 fragment) [Peptide 108]” the “reactivity with T cells isolated” value was “reactivity with T cells”, the “No. positive patients SI > 3” value was 27 and the “No. positive patients SI > 5” value was 24. For the same sequence, the “% (positive patients SI > 3)” value was 56.3% and the “% (positive patients SI > 5)” value was 50.0%.
“RSLQACEAYNII (Amb a 1 fragment) [Peptide 6]” was tested, and the “No. positive patients SI > 3” value was 1, the “No. positive patients SI > 5” value was 0 and the “% (positive patients SI > 3)” value was 2.1%. The “% (positive patients SI > 5)” value was 0.0%.
“NVAGSSQIWIDH (Amb a 1 fragment) [Peptide 59]” was tested, and the “reactivity with T cells isolated” value was “reactivity with T cells”, the “No. positive patients SI > 3” value was 11 and the “No. positive patients SI > 5” value was 8. The “% (positive patients SI > 3)” value was 22.9% and the “% (positive patients SI > 5)” value was 16.7%.
For “SAEGVGEILPSV (Amb a 1 fragment) [Peptide 1]”, the “No. positive patients SI > 3” value was 2, the “No. positive patients SI > 5” value was 0 and the “% (positive patients SI > 3)” value was 4.2%. For the same sequence, the “% (positive patients SI > 5)” value was 0.0%.
“GKWGDVYTVTSN (Amb a 1 fragment) [Peptide 20]” was tested, and the “reactivity with T cells isolated” value was “reactivity with T cells”, the “No. positive patients SI > 3” value was 9 and the “No. positive patients SI > 5” value was 7. The “% (positive patients SI > 3)” value was 18.8%, the “% (positive patients SI > 5)” value was 14.6% and the “T cell activating region recognized by % of patients” value was “recognized by 14.6%”.
“LARTGTGAAESMAWN (Amb a 1 fragment) [101/102]” was tested, and the “reactivity with T cells isolated” value was “reactivity with T cells” and the “T cell activating region recognized by % of patients” value was “recognized by 14.6%”.
In the case of “ALADCAQGFAKG (Amb a 1 fragment) [Peptide 15]”, the “No. positive patients SI > 3” value is reported as 4, the “No. positive patients SI > 5” value is reported as 2 and the “% (positive patients SI > 3)” value is reported as 8.3%. For the same sequence, the “% (positive patients SI > 5)” value was 4.2%.
“KNIIIHNINIHD (Amb a 1 fragment) [Peptide 46]” was tested, and the “reactivity with T cells isolated” value was “reactivity with T cells”, the “No. positive patients SI > 3” value was 10 and the “No. positive patients SI > 5” value was 8. For the same sequence, the “% (positive patients SI > 3)” value was 20.8% and the “% (positive patients SI > 5)” value was 16.7%.
In the case of “LARTGTGAAESM (Amb a 1 fragment) [Peptide 101]”, the “reactivity with T cells isolated” value is reported as “reactivity with T cells”, the “No. positive patients SI > 3” value is reported as 10 and the “No. positive patients SI > 5” value is reported as 7. The “% (positive patients SI > 3)” value was 20.8% and the “% (positive patients SI > 5)” value was 14.6%.
“VNNNYDRWGTYA (Amb a 1 fragment) [Peptide 88]” was tested, and the “reactivity with T cells isolated” value was “reactivity with T cells”, the “No. positive patients SI > 3” value was 10 and the “No. positive patients SI > 5” value was 4. The “% (positive patients SI > 3)” value was 20.8% and the “% (positive patients SI > 5)” value was 8.3%.
For “VDQRMPRCRFGF (Amb a 1 fragment) [Peptide 83]”, the “reactivity with T cells isolated” value was “reactivity with T cells”, the “No. positive patients SI > 3” value was 10 and the “No. positive patients SI > 5” value was 8. The “% (positive patients SI > 3)” value was 20.8%, the “% (positive patients SI > 5)” value was 16.7% and the “T cell activating region recognized by % of patients” value was “recognized by 16.7%”.
In the case of “QIWIDHCSLSKS (Amb a 1 fragment) [Peptide 61]”, the “reactivity with T cells isolated” value is reported as “reactivity with T cells”, the “No. positive patients SI > 3” value is reported as 29 and the “No. positive patients SI > 5” value is reported as 24. The “% (positive patients SI > 3)” value was 60.4% and the “% (positive patients SI > 5)” value was 50.0%.
In the case of “VVNSDKTIDGRG (Amb a 1 fragment) [Peptide 37]”, the “reactivity with T cells isolated” value is reported as “reactivity with T cells”, the “No. positive patients SI > 3” value is reported as 14 and the “No. positive patients SI > 5” value is reported as 9. For the same sequence, the “% (positive patients SI > 3)” value was 29.2% and the “% (positive patients SI > 5)” value was 18.8%.
For “DKCWRGKADWEN (Amb a 1 fragment) [Peptide 10]”, the “No. positive patients SI > 3” value was 2, the “No. positive patients SI > 5” value was 2 and the “% (positive patients SI > 3)” value was 4.2%. For the same sequence, the “% (positive patients SI > 5)” value was 4.2%.
